Test results reported in patent publication US9310359B2, “Analyte quantification using flow induced dispersion analysis” (FIDA-TECH APS, priority 2010, dated 2016).
Read-outs that look alike come from different tables or passages of the source.

Assays:
[1] = Flow Induced Dispersion Analysis (FIDA) equilibrium binding constant with βCD; conditions: complex with βCD, 67 mM phosphate buffer pH 7.4, 25° C., ±standard deviation
Procedure: The sample volume introduced into the capillary in these experiments corresponds to 9 nL. […] The peak shape may be fitted to a Gaussian peak shape (described in the examples); in this way the temporal peak variance σ^2 can be estimated.
[formula] where σA^2 is the observed variance obtained from a Gaussian fit in the absence of an interacting analyte and σAL^2 is the variance corresponding to the complex AL. […] Corrections due to sample injection and detector variances may be introduced, but as they are small and constant under the present conditions they are neglected.
[formula] where [L] is the concentration of free analyte. […]
In a series of experiments the concentration of βCD in the background electrolyte was varied and the peak variances determined.
βCD, α-naphthol and naproxen was obtained form Sigma-Aldrich. […] The amount of water present in βCD was determined by gravimetric analysis upon drying to constant weight in vacuo at ˜60° C. […]

[2] = Diffusion coefficients from FIDA peak variance (eq 2, capillary radius 25 μm); assay type: physicochemical; conditions: 67 mM phosphate buffer pH 7.4, 25° C., calculated using eq 2, capillary radius 25 μm; for Diffusion coefficient of the complex DAL: complex with βCD
From the text: According to Taylor-Aris theory the temporal peak variance is related to ligand (affinity probe) diffusivity (13,14). Under optimal conditions for a pressure driven flow in a cylindrical capillary the peak variance is inversely proportional to the diffusion coefficient, D, according to (15): [formula] where Rc is the radius of the capillary tube, and tR is the peak appearance time. In the presence of the analyte βCD, the observed variance can be attributed to α-naphthol and the complex between α-naphthol and βCD. We shall assume that the observed variance is a weighted average depending on the fraction of free α-naphthol, x. This assumption is valid when the complexation kinetics is fast compared to the timescale of the experiment (16). […] The experimental points are found to be well described by the model and the estimated binding constants are in good agreement with literature data considering that other methods and different conditions were used (table 1). In table 1, the diffusion coefficients of the analytes and complexes calculated using eq 2 and assuming a capillary radius of 25 μm are also listed. […] Samples were run in triplicate.

[3] = ACE; complex with βCD; 67 mM phosphate buffer pH 7.4; ±standard deviation
Procedure: Flow induced dispersion and capillary electrophoresis experiments were carried out using an Agilent ^3DCE instrument (Agilent Technologies, Waldbronn, Germany). Uncoated fused silica capillaries of 48.5 cm total length (50 μm i.d., 360 μm o.d.) and 40.5 cm to the detection window were obtained from Polymicro Technologies (Phoenix, Ariz., USA).
New capillaries were conditioned with 1 M NaOH (45 min), Milli-Q water (30 min) and 67 mM phosphate buffer pH 7.4 (30 min). Before a series of experiments the capillary was refreshed by flushing with 1 M NaOH (10 min) and 67 mM phosphate buffer pH 7.4 (10 min). In FIDA, the capillary was preconditioned by flushing the capillary with 0.1 M NaOH (2 min) and run buffer (2 min). The sample was injected by applying a pressure of 50 mbar for 5 sec. Subsequently a pressure of 50 mbar was applied across the capillary to force the sample through it. Finally the sample was detected by UV absorbance at 230 nm. Samples were run in triplicate. The peak variance was obtained by fitting the UV signal to a Gaussian peak shape. The Gaussian in addition to peak variance and peak appearance time the function incorporates a constant A to account for signal height and a constant y0 to account for a possible detector offset.

[4] = literature data (18, 19); cited from earlier work
[5] = complex with βCD; literature data (17); cited from earlier work

SMILES | Equilibrium binding constant K [1] | Diffusion coefficient of the free analyte DA [2] | Diffusion coefficient of the complex DAL [2] | Equilibrium binding constant K [3] | Diffusion coefficient of the free analyte DA [4] | Equilibrium binding constant K [5]
COc1ccc2cc([C@H](C)C(=O)O)ccc2c1 [Naproxen, naproxen] | 1050 (±185) M^−1 | 5.6 · 10^−6 cm^2 s^−1 | 2.8 · 10^−6 cm^2 s^−1 | 650 (±28)^f M^−1 | 5.8 · 10^−6g cm^2 s^−1 | 
Oc1cccc2ccccc12 [α-Naphthol, α-naphthol] | 2400 (±240) M^−1 | 9.3 · 10^−6 cm^2 s^−1 | 3.3 · 10^−6 cm^2 s^−1 |  | 9.2 · 10^−6e cm^2 s^−1 | 1250^d M^−1
